# Assay results taken from patent publication US6537974B2, “Method of treating arrhythmias” (CV Therapeutics, Inc., priority 2000, dated 2003).
# Columns and labels:
# AV node (AH interval) = test: Electrophysiology study: single intravenous bolus of CVT-510, effect on AH interval, heart rate, blood pressure; format: in vivo, human
# Method: (§1) The effect of CVT-510 on prolongation of AH interval, a measure of an adenosine A1 mediated effect of CVT-510, and on the heart rate (sinus rate) of patients with PSVT was tested in patients undergoing a clinically indicated electrophysiology study. In the first study patients volunteers were administered a single bolus of. CVT-510. In the second study PSVT was induced in patients prior to the administration of CVT-510.
# All antiarrhythmic agents, including digoxin, beta-blockers and calcium-channel blockers were discontinued for five half-lives prior to the study.
# Patients were excluded from the study if the PR interval was >200 ms or resting heart rate was <60 or >100/min. Other exclusion criteria included evidence of ventricular preexcitation, Class II-IV congestive heart failure or asthma. Patients were also required to have normal baseline electrophysiologic parameters, including a paced AV nodal Wenckebach cycle length 500 ms, an AH interval between 60 and 125 ms and an HV interval 35-55 ms. All patients were 18 years of age.
# Quadripolar catheters were introduced percutaneously and advanced under fluoroscopic guidance to the high right atrium and across the tricuspid annulus to record the His bundle potential. […] Data were stored on optical disk. All patients had continuous ECG and non-invasive blood pressure monitoring throughout the study.
# Cardiac stimulation was performed with a programmable stimulator with an isolated constant-current source. Stimuli were delivered as rectangular pulses of 2 ms duration at four times diastolic threshold. The study design was open-label with dose escalation, with the latter determined by tolerability. A single intravenous bolus of CVT-510 was administered to each patient after baseline electrophysiologic measurements were made.
# After a bolus dose of CVT-510 was given, blood pressure, heart rate, 12-lead ECG and AH and HV intervals were recorded at 1, 5, 10, 15, 20 and 30 min and then every 15 min for up to 1 hour post-bolus or until the parameters returned to baseline. The AH and HV intervals were determined by measuring the last interval during a 15 beat drive at a paced cycle length of 600, 500 and 400 ms (unless precluded by pacing-induced AV nodal Wenckebach).
# Administration of CVT-510 started at a dose of 0.3 μg/kg. Dose escalation proceeded with additional groups of patients receiving doses of 1, 3, 7.5, 10, 15 and 30 μg/kg based on tolerability and the absence of AV nodal Wenckebach or 3° AV block during sinus rhythm.
# Data are expressed as mean ±SD. Based on the results of the normality test, a paired t-test or a non-parametric signed-rank test (SR) was used to determine the significance of CVT-510's effects on heart rate, blood pressure, ECG and AV nodal conduction times (AH and HV) for each dosing group (e.g., 0.3, 1.0, 3.0, 7.5, 10.0, 15.0 and 30.0 μg/kg). Similarly, analysis of variance (ANOVA) or the Kruskal-Wallis test (KW) was used to compare the AH intervals during sinus rhythm and atrial pacing at all doses. No adjustment for multiple comparisons were made, and a P value <0.05 were used to determine the significance of the differences between mean values.
# patients with PSVT = test: Treatment of patients with induced PSVT with CVT-510 boluses: conversion to sinus rhythm; format: in vivo, human; details: for % conversion after Bolus 1 / % conversion after Bolus 2 / % cumulative conversion: patients with PSVT
# Method: as §1
# A1 adenosine receptor = target: T1, A1 adenosine receptor (Homo sapiens, UniProt P30542); test: Specificity for the A1 adenosine receptor: CPX antagonism, left ventricular pressure
# T1 sequence (P30542 1-326): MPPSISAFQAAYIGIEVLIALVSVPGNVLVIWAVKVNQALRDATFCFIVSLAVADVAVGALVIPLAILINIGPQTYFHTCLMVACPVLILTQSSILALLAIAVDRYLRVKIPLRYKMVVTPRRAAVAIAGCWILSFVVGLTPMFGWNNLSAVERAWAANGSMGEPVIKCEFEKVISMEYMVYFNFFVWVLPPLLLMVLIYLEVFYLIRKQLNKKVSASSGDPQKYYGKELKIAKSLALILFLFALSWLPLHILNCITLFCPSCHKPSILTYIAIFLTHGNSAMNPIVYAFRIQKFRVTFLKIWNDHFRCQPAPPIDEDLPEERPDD
# [1] = in vivo; cited from earlier work
smiles,measurement,setting,value
"OC[C@H]1O[C@@H](n2cnc3c(N[C@@H]4CCOC4)ncnc32)[C@H](O)[C@@H]1O [CVT-510, 6-(3-(R)-aminotetrahydrofuranyl)purine riboside]",effect on AV nodal conduction,"AV node (AH interval); bolus doses 0.3-30 μg/kg, patients",slows AV nodal conduction in a dose-dependent manner
same,time of maximal effect on the AH interval after dosing,"AV node (AH interval); dose of 7.5 μg/kg, human patients",one
same,half-life compared with adenosine,AV node (AH interval); in vivo,relatively long
same,effect on sinus rate,AV node (AH interval); patients,no effect
same,effect on systemic blood pressure,AV node (AH interval); patients,no effect
same,onset of action,AV node (AH interval); post-administration,≤ 1 min
same,time by which effects were mostly eliminated,AV node (AH interval); post-administration,≤ 20 min
same,% conversion after Bolus 1,patients with PSVT; Dose Level 3 (n = 4),75%
same,% conversion after Bolus 2,patients with PSVT; Dose Level 3 (n = 4),25%
same,% cumulative conversion,patients with PSVT; Dose Level 3 (n = 4),100%
same,% conversion after Bolus 1,patients with PSVT; Dose Level 5 (n = 9),78%
same,% conversion after Bolus 2,patients with PSVT; Dose Level 5 (n = 9),0%
same,% cumulative conversion,patients with PSVT; Dose Level 5 (n = 9),78%
same,% conversion after Bolus 1,patients with PSVT; Dose Level 7.5 (n = 4),100%
same,% conversion after Bolus 2,patients with PSVT; Dose Level 7.5 (n = 4),0%
same,% cumulative conversion,patients with PSVT; Dose Level 7.5 (n = 4),100%
same,% conversion after Bolus 1,patients with PSVT; Dose Level 10 (n = 5),90%
same,% conversion after Bolus 2,patients with PSVT; Dose Level 10 (n = 5),0%
same,% cumulative conversion,patients with PSVT; Dose Level 10 (n = 5),90%
same,% conversion after Bolus 1,patients with PSVT; Dose Level 12.5 (n = 4),75%
same,% conversion after Bolus 2,patients with PSVT; Dose Level 12.5 (n = 4),25%
same,% cumulative conversion,patients with PSVT; Dose Level 12.5 (n = 4),100%
same,% conversion after Bolus 1,patients with PSVT; Dose Level 15 (n = 10),80%
same,% conversion after Bolus 2,patients with PSVT; Dose Level 15 (n = 10),10%
same,% cumulative conversion,patients with PSVT; Dose Level 15 (n = 10),90%
same,HV prolongation,patients with PSVT; at low concentrations,without causing
same,depressing sinus or AV nodal conduction after restoring SR,patients with PSVT; at low concentrations,without causing
same,hypotension,patients with PSVT; at low concentrations,without causing
same,termination of PSVT,patients with PSVT; at low concentrations,rapidly terminates PSVT
same,effect on dpdt^−1 max,A1 adenosine receptor,no effect
same,effect on left ventricular pressure,A1 adenosine receptor,no effect
same,effects on the AV node in the presence of the selective A1 receptor antagonist CPX,"A1 adenosine receptor; with CPX, effects on coronary conductance not abolished",completely abolished
C[C@H]1O[C@@H](O[C@H]2[C@@H](O)C[C@H](O[C@H]3[C@@H](O)C[C@H](O[C@H]4CC[C@@]5(C)[C@H](CC[C@@H]6[C@@H]5C[C@@H](O)[C@]5(C)[C@@H](C7=CC(=O)OC7)CC[C@]65O)C4)O[C@@H]3C)O[C@@H]2C)C[C@H](O)[C@@H]1O [Digoxin],delayed onset of action,[1],about 30 min
same,time to peak effects after administration,[1],3 to 4 h
